Measurements: patent US11655225B2, “Antimycobacterial heterocyclic amides” (Crestone, Inc., priority 2018, dated 2023)
≈ marks a conversion by molar mass, not a printed value.

Tested on: isoniazid-, rifampin-, and fluoroquinolone-resistant M. tuberculosis
Experiment: microbe, parasite or virus in culture
Format: cell-based
Conditions: for MIC: Mycobacterium tuberculosis; for activity against resistant strains: isoniazid-, rifampin-, and fluoroquinolone-resistant M. tuberculosis

Row | SMILES | MIC | activity against resistant strains
1 | CC12CCCC(C(=O)Nc3nc4cc(Cl)cc(Cl)c4s3)(CCC1)C2 [Example 2, N-(5,7-dichloro-1,3-benzothiazol-2-yl)-5-methylbicyclo[3.3.1]nonane-1-carboxamide] | 0.03 to 4 µg/mL (≈ 0.0783 to 10.4 µM) | active
2 | CC12CCCC(C(=O)Nc3nc4ccc(OC(F)(F)F)cc4s3)(CCC1)C2 [Example 5, 5-methyl-N-[6-(trifluoromethoxy)-1,3-benzothiazol-2-yl]bicyclo[3.3.1]nonane-1-carboxamide] | 0.03 to 4 µg/mL (≈ 0.0753 to 10 µM) | active
3 | CC12CC3CC(C)(C1)CC(C(=O)Nc1nc4ccc(OC(F)(F)F)cc4s1)(C3)C2 [Example 45, 3,5-dimethyl-N-[6-(trifluoromethoxy)-1,3-benzothiazol-2-yl]adamantane-1-carboxamide] | 0.03 to 4 µg/mL (≈ 0.0707 to 9.42 µM) | active
4 | CC1CC(C(=O)Nc2nc3ccc(OC(F)(F)F)cc3s2)CC(C)(C)C1 (stereo not shown) [Example 46, 3,3,5-trimethyl-N-[6-(trifluoromethoxy)-1,3-benzothiazol-2-yl]cyclohexane-1-carboxamide] | 0.03 to 4 µg/mL (≈ 0.0776 to 10.4 µM) | active
5 | CC1CC(C(=O)Nc2nc3c(F)cc(F)cc3s2)CC(C)(C)C1 (stereo not shown) [Example 80, N-(4,6-difluoro-1,3-benzothiazol-2-yl)-3,3,5-trimethylcyclohexane-1-carboxamide] | 0.03 to 4 µg/mL (≈ 0.0886 to 11.8 µM) | active
